*1 amine or outer side, *2 acyl side, *3 side chain or, on linkers, in order; H or OH if unused. Where a SMILES comes first, the peptide text is derived from it. Side-chain parts run from the residue outwards. [ ]: non-standard residue; d: D form. The star is where a group is joined. C20 diacid = O=C(O)CCCCCCCCCCCCCCCCCCC(=O)*; γGlu = O=C(O)[C@H](CCC(=O)[*:2])N[*:1]; εLys = N[C@@H](CCCCN[*:1])C(=O)[*:2]; AEEA = NCCOCCOCC(=O)O; Aib = CC(C)(N)C(=O)O
Key:
[1] = biological target: T1, human GIP receptor (Homo sapiens, UniProt P48546); experiment: In vitro functional potency (CRE luciferase; whole cells), human GIPR; type: cell-based; settings: BHK CRE luc2P hGIPR whole cells; Table 2; read-out: hGIPR CRE Luc EC50
T1 construct: expressed in transfected cells; host or cells: BHK cells (parent line BHKTS13) containing CRE luciferase
T1 sequence (P48546 22-466): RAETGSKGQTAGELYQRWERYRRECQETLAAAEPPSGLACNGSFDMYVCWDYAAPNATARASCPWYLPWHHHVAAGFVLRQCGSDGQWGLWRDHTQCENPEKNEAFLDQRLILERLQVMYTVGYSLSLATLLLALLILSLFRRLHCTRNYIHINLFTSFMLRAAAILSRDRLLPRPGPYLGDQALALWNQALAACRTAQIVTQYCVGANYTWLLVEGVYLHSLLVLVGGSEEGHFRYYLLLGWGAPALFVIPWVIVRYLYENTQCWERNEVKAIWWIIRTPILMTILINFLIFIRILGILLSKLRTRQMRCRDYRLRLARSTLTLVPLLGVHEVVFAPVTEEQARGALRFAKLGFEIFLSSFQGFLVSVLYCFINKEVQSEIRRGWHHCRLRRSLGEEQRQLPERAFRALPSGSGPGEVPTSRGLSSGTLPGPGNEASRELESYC
Protocol: The purpose of this example is to test the functional activity, or potency, of the compounds in vitro at the human and mouse GLP-1, GIP, and Gcg receptors. The in vitro functional potency is the measure of target receptor activation in a whole cell assay.
In vitro functional potency was determined by measuring the response of the target receptor in a reporter gene assay in individual cell lines. The assay was performed in stably transfected BHK cell lines that expresses one of the following G-protein coupled receptors: human GLP-1 receptor, human GIP receptor, human Gcg receptor, mouse GLP-1 receptor, mouse GIP receptor, or mouse Gcg receptor; and where each cell line contains the DNA for the cAMP response element (CRE) coupled to a promoter and the gene for firefly luciferase (CRE luciferase). When the respective receptor is activated, it results in the production of cAMP, which in turn results in expression of the luciferase protein. When assay incubation is completed, luciferase substrate (luciferin) is added resulting in the enzymatic conversion of luciferin to oxyluciferin and producing bioluminescence. The luminescence is measured as the readout for the assay.
The cells lines used in these assays were BHK cells with BHKTS13 as a parent cell line. The cell lines were derived from a clone containing the CRE luciferase element and were established by further transfection with the respective receptor to obtain the relevant cell line.
The cells were cultured at 37° C. with 5% CO2 in Cell Culture Medium. They were aliquoted and stored in liquid nitrogen. The cells were kept in continuous culture and were seeded out the day before each assay.
GLP-1R and GcgR Cell Culture Medium consisted of DMEM medium with 10% FBS, 500 µg/mL G418, and 300 µg/mL hygromycin. GIPR Cell Culture Medium consisted of DMEM medium with 10% FBS, 400 µg/mL G418, and 300 µg/mL hygromycin. Assay Buffer consisted of DMEM w/o phenol red, 10 mM Hepes, 1× Glutamax, 1% ovalbumin, and 0.1% Pluronic F-68.
• 1) Cells were plated at 5000 cells/well and incubated overnight in the assay plate. • 2) Cells were washed once in DPBS. • 3) Stocks of the test compounds and reference compounds in concentrations ranging from 100-300 pM were diluted 1:150 in Assay Buffer.
The data from the microtiter plate reader was first regressed in an Excel in order to calculate the x-axis, log scale concentrations based on the individual test compound's stock concentration and the dilutions of the assay. […] The software performs a non-linear regression (log(agonist) vs response). A minimum of two replicates was measured for each sample. The reported values are averages of the replicates.

[2] = biological target: T2, human GLP-1 receptor (Homo sapiens, UniProt P43220); experiment: In vitro functional potency (CRE luciferase; whole cells), human GLP-1R; type: cell-based; settings: BHK CRE luc2P hGLP-1R whole cells; Table 2; read-out: hGLP-1R CRE Luc EC50
T2 construct: expressed in transfected cells; host or cells: BHK cells (parent line BHKTS13) containing CRE luciferase
T2 sequence (P43220 24-463): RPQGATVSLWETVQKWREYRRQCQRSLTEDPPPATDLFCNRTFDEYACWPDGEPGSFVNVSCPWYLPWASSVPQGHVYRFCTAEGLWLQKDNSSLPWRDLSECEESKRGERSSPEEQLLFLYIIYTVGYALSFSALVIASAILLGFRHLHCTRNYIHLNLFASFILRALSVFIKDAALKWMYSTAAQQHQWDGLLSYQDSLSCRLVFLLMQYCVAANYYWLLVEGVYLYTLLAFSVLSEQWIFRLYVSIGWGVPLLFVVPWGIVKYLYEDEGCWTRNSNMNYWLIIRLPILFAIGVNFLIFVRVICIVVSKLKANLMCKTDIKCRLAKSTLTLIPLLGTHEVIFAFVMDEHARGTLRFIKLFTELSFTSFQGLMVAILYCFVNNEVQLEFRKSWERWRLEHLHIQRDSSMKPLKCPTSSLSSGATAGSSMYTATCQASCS

| Compound | EC50 [1] | EC50 [2] |
| --- | --- | --- |
| CC[C@H](C)[C@H](NC(=O)[C@H](CO)NC(=O)[C@H](Cc1ccc(O)cc1)NC(=O)[C@H](CC(=O)O)NC(=O)[C@H](CO)NC(=O)[C@@H](NC(=O)[C@H](Cc1ccccc1)NC(=O)[C@@H](NC(=O)CNC(=O)[C@H](Cc1c[nH]cn1)NC(=O)C(C)(C)NC(=O)[C@@H](N)Cc1c[nH]cn1)[C@@H](C)O)[C@@H](C)O)C(=O)N[C@@H](CC(C)C)C(=O)N[C@@H](CC(C)C)C(=O)N[C@@H](CCC(=O)O)C(=O)N[C@@H](CCCCNC(=O)COCCOCCNC(=O)COCCOCCNC(=O)CC[C@H](NC(=O)CCCCCCCCCCCCCCCCCCC(=O)O)C(=O)O)C(=O)N[C@@H](CCC(N)=O)C(=O)N[C@@H](C)C(=O)N[C@@H](C)C(=O)NC(C)(C)C(=O)N[C@@H](CCC(=O)O)C(=O)N[C@@H](Cc1ccccc1)C(=O)N[C@H](C(=O)N[C@@H](CCC(N)=O)C(=O)N[C@@H](Cc1c[nH]c2ccccc12)C(=O)N[C@@H](CC(C)C)C(=O)N[C@@H](CC(C)C)C(=O)N[C@@H](CCC(=O)O)C(=O)NCC(=O)NCC(=O)N1CCC[C@H]1C(=O)N[C@@H](CO)C(=O)N[C@@H](CO)C(=O)NCC(=O)N[C@@H](C)C(=O)N1CCC[C@H]1C(=O)N1CCC[C@H]1C(=O)N1CCC[C@H]1C(=O)N[C@@H](CO)C(N)=O)C(C)C [Compound No. 45] (H-H[Aib]HGTFTSDYSILLEK([AEEA-AEEA-γGlu-C20 diacid])QAA[Aib]EFVQWLLEGGPSSGAPPPS-NH2; N-terminus assumed) | 1.9 pM | 2.4 pM |
| CC[C@H](C)[C@H](NC(=O)[C@H](CO)NC(=O)[C@H](Cc1ccc(O)cc1)NC(=O)[C@H](CC(=O)O)NC(=O)[C@H](CO)NC(=O)[C@@H](NC(=O)[C@H](Cc1ccccc1)NC(=O)[C@@H](NC(=O)CNC(=O)[C@H](Cc1c[nH]cn1)NC(=O)C(C)(C)NC(=O)[C@@H](N)Cc1c[nH]cn1)[C@@H](C)O)[C@@H](C)O)C(=O)N[C@@H](Cc1ccc(O)cc1)C(=O)N[C@@H](CC(C)C)C(=O)N[C@@H](CCC(=O)O)C(=O)N[C@@H](CCCCNC(=O)[C@@H](N)CCCCNC(=O)[C@@H](N)CCCCNC(=O)CC[C@H](NC(=O)CCCCCCCCCCCCCCCCCCC(=O)O)C(=O)O)C(=O)N[C@@H](CCC(N)=O)C(=O)N[C@@H](C)C(=O)N[C@@H](C)C(=O)NC(C)(C)C(=O)N[C@@H](CCC(=O)O)C(=O)N[C@@H](Cc1ccccc1)C(=O)N[C@H](C(=O)N[C@@H](CCC(N)=O)C(=O)N[C@@H](Cc1c[nH]c2ccccc12)C(=O)N[C@@H](CC(C)C)C(=O)N[C@@H](CC(C)C)C(=O)N[C@@H](CCC(=O)O)C(=O)NCC(=O)NCC(=O)N1CCC[C@H]1C(=O)N[C@@H](CO)C(=O)N[C@@H](CO)C(=O)NCC(=O)N[C@@H](C)C(=O)N1CCC[C@H]1C(=O)N1CCC[C@H]1C(=O)N1CCC[C@H]1C(=O)N[C@@H](CO)C(N)=O)C(C)C [Compound No. 22] (H-H[Aib]HGTFTSDYSIYLEK([εLys-εLys-γGlu-C20 diacid])QAA[Aib]EFVQWLLEGGPSSGAPPPS-NH2; N-terminus assumed) | 7.1 pM | 2 pM |
| CC(C)C[C@H](NC(=O)[C@H](CC(C)C)NC(=O)[C@H](Cc1c[nH]c2ccccc12)NC(=O)[C@H](CCC(N)=O)NC(=O)[C@@H](NC(=O)[C@H](Cc1ccccc1)NC(=O)[C@H](CCC(=O)O)NC(=O)C(C)(C)NC(=O)[C@H](C)NC(=O)[C@H](C)NC(=O)[C@H](CCC(N)=O)NC(=O)[C@H](CCCCNC(=O)[C@@H](N)CCCCNC(=O)[C@@H](N)CCCCNC(=O)CC[C@H](NC(=O)CCCCCCCCCCCCCCCCCCC(=O)O)C(=O)O)NC(=O)[C@H](CCC(=O)O)NC(=O)[C@H](CC(C)C)NC(=O)[C@H](Cc1ccc(O)cc1)NC(=O)[C@H](CCCCN)NC(=O)[C@H](CO)NC(=O)[C@H](Cc1ccc(O)cc1)NC(=O)[C@H](CC(=O)O)NC(=O)[C@H](CO)NC(=O)[C@@H](NC(=O)[C@H](Cc1ccccc1)NC(=O)[C@@H](NC(=O)CNC(=O)[C@H](Cc1c[nH]cn1)NC(=O)C(C)(C)NC(=O)[C@@H](N)Cc1c[nH]cn1)[C@@H](C)O)[C@@H](C)O)C(C)C)C(=O)N[C@@H](CCC(=O)O)C(=O)NCC(=O)NCC(=O)N1CCC[C@H]1C(=O)N[C@@H](CO)C(=O)N[C@@H](CO)C(=O)NCC(=O)N[C@@H](C)C(=O)N1CCC[C@H]1C(=O)N1CCC[C@H]1C(=O)N1CCC[C@H]1C(=O)N[C@@H](CO)C(N)=O [Compound No. 36] (H-H[Aib]HGTFTSDYSKYLEK([εLys-εLys-γGlu-C20 diacid])QAA[Aib]EFVQWLLEGGPSSGAPPPS-NH2) | 9.3 pM | 1.8 pM |
| CC[C@H](C)[C@H](NC(=O)[C@H](CO)NC(=O)[C@H](Cc1ccc(O)cc1)NC(=O)[C@H](CC(=O)O)NC(=O)[C@H](CO)NC(=O)[C@@H](NC(=O)[C@H](Cc1ccccc1)NC(=O)[C@@H](NC(=O)CNC(=O)[C@H](Cc1c[nH]cn1)NC(=O)C(C)(C)NC(=O)[C@@H](N)Cc1c[nH]cn1)[C@@H](C)O)[C@@H](C)O)C(=O)N[C@@H](CC(C)C)C(=O)N[C@@H](CC(C)C)C(=O)N[C@@H](CCC(=O)O)C(=O)N[C@@H](CCCCNC(=O)[C@@H](N)CCCCNC(=O)[C@@H](N)CCCCNC(=O)CC[C@H](NC(=O)CCCCCCCCCCCCCCCCCCC(=O)O)C(=O)O)C(=O)N[C@@H](CCC(N)=O)C(=O)N[C@@H](C)C(=O)N[C@@H](C)C(=O)N[C@@H](CCC(=O)O)C(=O)N[C@@H](CCC(=O)O)C(=O)N[C@@H](Cc1ccccc1)C(=O)N[C@H](C(=O)N[C@@H](CCC(N)=O)C(=O)N[C@@H](Cc1c[nH]c2ccccc12)C(=O)N[C@@H](CC(C)C)C(=O)N[C@@H](CC(C)C)C(=O)N[C@@H](CCC(=O)O)C(=O)NCC(=O)NCC(=O)N1CCC[C@H]1C(=O)N[C@@H](CO)C(=O)N[C@@H](CO)C(=O)NCC(=O)N[C@@H](C)C(=O)N1CCC[C@H]1C(=O)N1CCC[C@H]1C(=O)N1CCC[C@H]1C(=O)N[C@@H](CO)C(N)=O)C(C)C [Compound No. 49] (H-H[Aib]HGTFTSDYSILLEK([εLys-εLys-γGlu-C20 diacid])QAAEEFVQWLLEGGPSSGAPPPS-NH2) | 2.1 pM | 1.4 pM |
| CC[C@H](C)[C@H](NC(=O)[C@H](CO)NC(=O)[C@H](Cc1ccc(O)cc1)NC(=O)[C@H](CC(=O)O)NC(=O)[C@H](CO)NC(=O)[C@@H](NC(=O)[C@H](Cc1ccccc1)NC(=O)[C@@H](NC(=O)CNC(=O)[C@H](CCC(N)=O)NC(=O)C(C)(C)NC(=O)[C@@H](N)Cc1ccc(O)cc1)[C@@H](C)O)[C@@H](C)O)C(=O)N[C@@H](Cc1ccc(O)cc1)C(=O)N[C@@H](CC(C)C)C(=O)N[C@@H](CCC(=O)O)C(=O)N[C@@H](CCCCNC(=O)COCCOCCNC(=O)COCCOCCNC(=O)CC[C@H](NC(=O)CCCCCCCCCCCCCCCCCCC(=O)O)C(=O)O)C(=O)N[C@@H](CCC(N)=O)C(=O)N[C@@H](C)C(=O)N[C@@H](C)C(=O)NC(C)(C)C(=O)N[C@@H](CCC(=O)O)C(=O)N[C@@H](Cc1ccccc1)C(=O)N[C@H](C(=O)N[C@@H](CC(N)=O)C(=O)N[C@@H](Cc1c[nH]c2ccccc12)C(=O)N[C@@H](CC(C)C)C(=O)N[C@@H](CC(C)C)C(=O)N[C@@H](C)C(=O)NCC(=O)NCC(=O)N1CCC[C@H]1C(=O)N[C@@H](CO)C(=O)N[C@@H](CO)C(=O)NCC(=O)N[C@@H](C)C(=O)N1CCC[C@H]1C(=O)N1CCC[C@H]1C(=O)N1CCC[C@H]1C(=O)N[C@@H](CO)C(N)=O)C(C)C [Compound No. 15] (H-Y[Aib]QGTFTSDYSIYLEK([AEEA-AEEA-γGlu-C20 diacid])QAA[Aib]EFVNWLLAGGPSSGAPPPS-NH2) | 4.8 pM | 1.4 pM |

From patent US20230391845A1, “GLP-1, GIP AND GLUCAGON RECEPTOR TRIPLE AGONISTS” (priority 2020, published 2023)
